In patent US6362369B1, “Phthalic acid diamide derivatives fluorine-containing aniline compounds as starting material, agricultural and horticultural insecticides, and a method for application of the insecticides” (Nihon Nohyaku Co., Ltd., priority 1997, dated 2002):

Experiments:
Type in all cases: in vivo
[1] = system: diamondback moth (Plutella xylostella); test: Insecticidal effect on diamondback moth (Test Example 1); conditions: for Insecticidal effect, Test Example 1 / Insecticidal effect (Test Example 1), judged from mortality: diamondback moth; for Insecticidal effect (Test Example 1), judged from mortality: judged by the criterion of Test Example 1
Outline: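 Triplicate groups of 10 insects: eggs laid on Chinese cabbage seedling by adults, seedling immersed then air-dried, kept at 25° C. Day-6 hatch counts gave mortality, rated by criterion.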

[2] = system: common cutworm (Spodoptera Litura); test: Insecticidal effect on common cutworm (Test Example 2); conditions: 500 ppm, 25° C.; for Insecticidal effect, Test Example 2: cabbage leaf immersed; for Insecticidal effect (Test Example 2), judged from mortality: 8 days after inoculation
Outline: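 Second-instar larvae placed in 9 cm Petri dishes with air-dried treated material, held at 25 °C. Dead and live insects counted 8 days after inoculation; mortality calculated and scored against a set criterion. Triplicate groups of 10 insects.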

[3] = system: rice leafroller (Cnaphalocrocis medinalis); test: Insecticidal effect on rice leafroller (Test Example 3); conditions: 500 ppm, 25° C., humidity 70%; for Insecticidal effect, Test Example 3: rice lamina immersed; for Insecticidal effect (Test Example 3), judged from mortality: 4 days after inoculation
Outline: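 Insecticidal effect is judged by a predefined criterion from dead/alive counts four days after infesting air-dried lamina with third-instar larvae, kept on moistened filter paper at 25° C, 70% humidity.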

[4] = mortality judged by criterion of Test Example 1
[5] = common cutworm second-instar larvae, eight days after inoculation
[6] = rice leafroller third-instar larvae, four days after inoculation
[7] = judged by the mortality criterion of Test Example 1
[8] = second-instar larvae of common cutworm, eight days after inoculation
[9] = third-instar larvae of rice leafroller, four days after inoculation
[10] = cabbage leaf dip, second-instar larvae of common cutworm
[11] = rice lamina dip, third-instar larvae of rice leafroller

SMILES: Cc1cc(C(F)(F)C(F)(F)F)ccc1NC(=O)c1c(I)cccc1C(=O)NCC(F)(F)F [compound 1041]
- Insecticidal effect, Test Example 1 [1, 4]: A (100)
- Insecticidal effect, Test Example 2 [2, 5]: A (100)
- Insecticidal effect, Test Example 3 [3, 6]: A (100)

SMILES: CC(C)NC(=O)c1c(I)cccc1C(=O)Nc1ccc(OC(F)F)c(C(F)(F)F)c1 [compound 410]
- Insecticidal effect, Test Example 1 [1, 7]: A (100)
- Insecticidal effect, Test Example 2 [2, 8]: A (100)
- Insecticidal effect, Test Example 3 [3, 9]: A (100)

SMILES: CC(C)(C)NC(=O)c1c(Cl)cccc1C(=O)Nc1ccc(OC(F)(F)F)cc1Cl [compound 1022]
- Insecticidal effect, Test Example 1 [1, 4]: A (100)
- Insecticidal effect, Test Example 2 [2, 5]: A (100)
- Insecticidal effect, Test Example 3 [3, 6]: A (100)

SMILES: CC(C)NC(=O)c1c(I)cccc1C(=O)Nc1ccc2oc(C(F)(F)C(F)(F)C(F)(F)F)nc2c1 [compound 1637]
- Insecticidal effect (Test Example 1), judged from mortality [1]: A (100)
- Insecticidal effect (Test Example 2), judged from mortality [2, 10]: A (100)
- Insecticidal effect (Test Example 3), judged from mortality [3, 11]: A (100)

SMILES: Cc1cc(Cl)ccc1NC(=O)c1cccc(I)c1C(=O)NC(C)C [compound 362]
- Insecticidal effect, Test Example 1 [1, 7]: A (100)
- Insecticidal effect, Test Example 2 [2, 8]: A (100)
- Insecticidal effect, Test Example 3 [3, 9]: A (100)

SMILES: Cc1cccc(NC(=O)c2cccc(Cl)c2C(=O)NC(C)C)c1C [compound 117]
- Insecticidal effect, Test Example 1 [1, 7]: A (100)
- Insecticidal effect, Test Example 2 [2, 8]: A (100)
- Insecticidal effect, Test Example 3 [3, 9]: A (100)

SMILES: CCc1cc(C(F)(F)C(F)(F)F)ccc1NC(=O)c1cccc(F)c1C(=O)N(CC)CC [compound 1549]
- Insecticidal effect (Test Example 1), judged from mortality [1]: A (100)
- Insecticidal effect (Test Example 2), judged from mortality [2, 10]: D (79-50)
- Insecticidal effect (Test Example 3), judged from mortality [3, 11]: A (100)

SMILES: Cc1cc(C(F)(C(F)(F)F)C(F)(F)F)ccc1NC(=O)c1ccc(Cl)c(Cl)c1C(=O)NC(C)C [compound 1223]
- Insecticidal effect, Test Example 1 [1, 4]: A (100)
- Insecticidal effect, Test Example 2 [2, 5]: A (100)
- Insecticidal effect, Test Example 3 [3, 6]: A (100)

SMILES: Cc1cc(C(F)(F)C(F)(F)F)ccc1NC(=O)c1c(Cl)cccc1C(=O)N(C)Cc1ccccc1 [compound 1436]
- Insecticidal effect, Test Example 1 [1, 4]: A (100)
- Insecticidal effect, Test Example 2 [2, 5]: A (100)
- Insecticidal effect, Test Example 3 [3, 6]: A (100)

SMILES: CC(C)NC(=O)c1cc(Cl)ccc1C(=O)Nc1ccc(Cl)cc1Cl [compound 173]
- Insecticidal effect, Test Example 1 [1, 7]: A (100)
- Insecticidal effect, Test Example 2 [2, 8]: D (79-50)
- Insecticidal effect, Test Example 3 [3, 9]: D (79-50)

SMILES: Cc1cc(-c2ccc(C(F)(F)F)cc2)ccc1NC(=O)c1cccc(I)c1C(=O)NC(C)C [compound 1522]
- Insecticidal effect (Test Example 1), judged from mortality [1]: A (100)
- Insecticidal effect (Test Example 2), judged from mortality [2, 10]: A (100)
- Insecticidal effect (Test Example 3), judged from mortality [3, 11]: A (100)

SMILES: Cc1cc(OC(F)(F)C(F)F)ccc1NC(=O)c1cccc(I)c1C(=O)NC(C)(C)C [compound 1062]
- Insecticidal effect, Test Example 1 [1, 4]: A (100)
- Insecticidal effect, Test Example 2 [2, 5]: A (100)
- Insecticidal effect, Test Example 3 [3, 6]: A (100)

SMILES: Cc1cc(OC(F)F)ccc1NC(=O)c1cccc(I)c1C(=O)NC1CC1 [compound 1452]
- Insecticidal effect (Test Example 1), judged from mortality [1]: A (100)
- Insecticidal effect (Test Example 2), judged from mortality [2, 10]: A (100)
- Insecticidal effect (Test Example 3), judged from mortality [3, 11]: A (100)

SMILES: Cc1cc(C(F)(F)C(F)(F)C(F)(F)F)ccc1NC(=O)c1cccc(Br)c1C(=O)NC(C)C [compound 279]
- Insecticidal effect, Test Example 1 [1, 7]: A (100)
- Insecticidal effect, Test Example 2 [2, 8]: A (100)
- Insecticidal effect, Test Example 3 [3, 9]: A (100)

SMILES: Cc1cc(OC(F)F)ccc1NC(=O)c1cccc(Cl)c1C(=O)N[C@H](C)c1ccccc1 [compound 1458]
- Insecticidal effect (Test Example 1), judged from mortality [1]: A (100)
- Insecticidal effect (Test Example 2), judged from mortality [2, 10]: A (100)
- Insecticidal effect (Test Example 3), judged from mortality [3, 11]: A (100)

SMILES: Cc1cc(OC(F)F)ccc1NC(=O)c1ccc(I)cc1C(=O)NC(C)C [compound 1204]
- Insecticidal effect, Test Example 1 [1, 4]: A (100)
- Insecticidal effect, Test Example 2 [2, 5]: A (100)
- Insecticidal effect, Test Example 3 [3, 6]: A (100)

SMILES: CCN(CC)C(=O)c1c(I)cccc1C(=O)Nc1ccc(C(F)(F)F)cc1 [compound 1558]
- Insecticidal effect (Test Example 1), judged from mortality [1]: A (100)
- Insecticidal effect (Test Example 2), judged from mortality [2, 10]: C (89-80)
- Insecticidal effect (Test Example 3), judged from mortality [3, 11]: A (100)

SMILES: CC(C)NC(=O)c1c(I)cccc1C(=O)Nc1ccc2c(c1)OC(F)(F)C2(F)F [compound 974]
- Insecticidal effect, Test Example 1 [1, 4]: A (100)
- Insecticidal effect, Test Example 2 [2, 5]: A (100)
- Insecticidal effect, Test Example 3 [3, 6]: A (100)

SMILES: Cc1cccc(NC(=O)c2c(Cl)cccc2C(=O)NC(C)C)c1C [compound 213]
- Insecticidal effect, Test Example 1 [1, 7]: A (100)
- Insecticidal effect, Test Example 2 [2, 8]: A (100)
- Insecticidal effect, Test Example 3 [3, 9]: A (100)

SMILES: Cc1cc(OC(F)(F)C(F)OC(F)(F)F)ccc1NC(=O)c1cccc(I)c1C(=O)NC(C)C (stereo not drawn) [compound 395]
- Insecticidal effect, Test Example 1 [1, 7]: A (100)
- Insecticidal effect, Test Example 2 [2, 8]: A (100)
- Insecticidal effect, Test Example 3 [3, 9]: A (100)

SMILES: CSc1cccc(C(=O)Nc2ccc(Cl)cc2C)c1C(=O)NC(C)C [compound 781]
- Insecticidal effect on diamondback moth (Test Example 1), judged grade ([1]; mortality judged according to the criterion shown in Test Example 1): A (100)
- Insecticidal effect on common cutworm (Test Example 2), judged grade ([2]; cabbage leaf dip, second-instar larvae, eight days after inoculation): A (100)
- Insecticidal effect on rice leafroller (Test Example 3), judged grade ([3]; rice lamina dip, third-instar larvae, four days after inoculation): A (100)

SMILES: CCN(CC)C(=O)c1c(Cl)cccc1C(=O)Nc1ccc(OC(F)F)cc1C [compound 1538]
- Insecticidal effect (Test Example 1), judged from mortality [1]: A (100)
- Insecticidal effect (Test Example 2), judged from mortality [2, 10]: A (100)
- Insecticidal effect (Test Example 3), judged from mortality [3, 11]: A (100)

SMILES: CCN(CC)C(=O)c1c(I)cccc1C(=O)Nc1ccc(SC(F)(F)F)cc1 [compound 1128]
- Insecticidal effect, Test Example 1 [1, 4]: A (100)
- Insecticidal effect, Test Example 2 [2, 5]: A (100)
- Insecticidal effect, Test Example 3 [3, 6]: A (100)

SMILES: Cc1cc(C(F)(F)C(F)(F)F)ccc1NC(=O)c1ccccc1C(=O)N(C(C)C)C(C)C [compound 1071]
- Insecticidal effect, Test Example 1 [1, 4]: A (100)
- Insecticidal effect, Test Example 2 [2, 5]: C (89-80)
- Insecticidal effect, Test Example 3 [3, 6]: A (100)

SMILES: CC(C)NC(=O)c1c(C(=O)Nc2ccc3c(c2)OC(F)(F)C(F)(F)O3)cccc1[N+](=O)[O-] [compound 976]
- Insecticidal effect, Test Example 1 [1, 4]: A (100)
- Insecticidal effect, Test Example 2 [2, 5]: A (100)
- Insecticidal effect, Test Example 3 [3, 6]: A (100)

SMILES: Cc1cc(OC(F)(F)F)ccc1NC(=O)c1ccc(F)c(Cl)c1C(=O)NC(C)C [compound 1227]
- Insecticidal effect, Test Example 1 [1, 4]: A (100)
- Insecticidal effect, Test Example 2 [2, 5]: A (100)
- Insecticidal effect, Test Example 3 [3, 6]: A (100)

SMILES: Cc1cc(OC(F)(F)C(F)F)ccc1NC(=O)c1c(Cl)cccc1C(=O)NC(C)C [Compound No. 239, 6-chloro-N^1-[4-(1,1,2,2-tetrafluoroethoxy)-2-methylphenyl]-N^2-isopropylphthalic acid diamide]
- Insecticidal effect, Test Example 1 [1, 7]: A (100)
- Insecticidal effect, Test Example 2 [2, 8]: A (100)
- Insecticidal effect, Test Example 3 [3, 9]: A (100)

SMILES: CCN(CC)C(=O)c1c(OC(F)(F)F)cccc1C(=O)Nc1ccc(C(F)(F)C(F)(F)F)cc1C [compound 1193]
- Insecticidal effect, Test Example 1 [1, 4]: A (100)
- Insecticidal effect, Test Example 2 [2, 5]: A (100)
- Insecticidal effect, Test Example 3 [3, 6]: A (100)

SMILES: Cc1cc(C(F)(F)C(F)(F)F)ccc1NC(=O)c1cccc(I)c1C(=O)N1CCOCC1 [compound 1070]
- Insecticidal effect, Test Example 1 [1, 4]: A (100)
- Insecticidal effect, Test Example 2 [2, 5]: A (100)
- Insecticidal effect, Test Example 3 [3, 6]: A (100)

SMILES: Cc1cc(C(F)(F)C(F)(F)F)ccc1NC(=O)c1cccc(Cl)c1C(=O)NC(C)CBr (stereo not drawn) [compound 1652]
- Insecticidal effect (Test Example 1), judged from mortality [1]: A (100)
- Insecticidal effect (Test Example 2), judged from mortality [2, 10]: A (100)
- Insecticidal effect (Test Example 3), judged from mortality [3, 11]: A (100)

SMILES: Cc1cc(Oc2ccc(C(F)(F)F)cn2)ccc1NC(=O)c1cccc(Br)c1C(=O)NC(C)C [compound 299]
- Insecticidal effect, Test Example 1 [1, 7]: A (100)
- Insecticidal effect, Test Example 2 [2, 8]: A (100)
- Insecticidal effect, Test Example 3 [3, 9]: A (100)
